Values quoted from earlier work, collected in patent US20110294815A1, “PROSTACYCLIN ANALOGS” (priority 2008, published 2011).

Conditions: patients with hepatic insufficiency vs healthy adults

CCCCC[C@H](O)CC[C@@H]1[C@H]2Cc3cccc(OCC(=O)[O-])c3C[C@H]2C[C@H]1O.[Na+] [treprostinil, (1R,2R,3aS,9aS)-[[2,3,3a,4,9,9a-Hexahydro-2-hydroxy-1-[(3S)-3-hydroxyoctyl]-1H-benz[f]inden-5-yl]oxy]acetic acid monosodium salt]
reduction of clearance compared to healthy adults: up to 80%
